In assay [1] the target is T1, D(3) dopamine receptor (Homo sapiens, UniProt P35462). Kind of assay: Rate of [3H]thymidine uptake compared to quinpirole (100%) in Dopamine receptor D3 expressing CHO cells. Type of assay: functional, cell-based. The settings on record: Cricetulus griseus.
Assay [2] deals with T1, D(3) dopamine receptor. The settings on record: Cricetulus griseus; CHO.
Assay [3] concerns the target T2, D(2) dopamine receptor (Homo sapiens, UniProt P14416).
Description: Binding affinity for human Dopamine receptor D2 (short) by [3H]- spiperone displacement.
In assay [4] the target is 5-HT2 receptor (Sus scrofa). Put plainly: Binding affinity for porcine 5-hydroxytryptamine 2 receptor using [3H]- ketanserin.
For assay [5], the target named is Adrenergic receptor alpha-1 (Sus scrofa). Kind of assay: […] from porcine Alpha-1 adrenergic receptor. Type of assay: protein assay. Background: Displacement assays read how much labelled ligand stays bound in the presence of the test substance.
For assay [6], the target named is T1, D(3) dopamine receptor. The settings on record: Cricetulus griseus; CHO. This is another data set of the same source.
The target of the next assay is T3, D(4) dopamine receptor (Homo sapiens, UniProt P21917).
T3 sequence (P21917 whole entry): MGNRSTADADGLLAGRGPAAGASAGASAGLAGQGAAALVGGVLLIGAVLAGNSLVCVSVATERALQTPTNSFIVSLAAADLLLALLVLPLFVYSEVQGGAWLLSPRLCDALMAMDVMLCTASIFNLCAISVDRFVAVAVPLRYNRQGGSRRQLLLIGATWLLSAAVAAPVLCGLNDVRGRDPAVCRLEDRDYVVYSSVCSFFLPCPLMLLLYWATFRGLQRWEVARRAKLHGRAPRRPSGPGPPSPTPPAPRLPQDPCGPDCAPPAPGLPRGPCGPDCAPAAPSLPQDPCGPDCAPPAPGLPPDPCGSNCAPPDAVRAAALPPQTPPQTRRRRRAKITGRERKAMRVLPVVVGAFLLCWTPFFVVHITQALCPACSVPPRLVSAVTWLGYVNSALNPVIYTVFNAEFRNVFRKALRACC

For assay [7], the target named is T1, D(3) dopamine receptor.
Description: Binding affinity for human Dopamine receptor D3 by [3H]- spiperone displacement.
In assay [8] the target is T2, D(2) dopamine receptor. This is another data set of the same source.
Description: Binding affinity for human Dopamine receptor D2 (long) by [3H]- spiperone displacement.

From ChEMBL document CHEMBL1135974 (J Med Chem, 2002) come the findings set out here.

SMILES strings stand for the structures. The source made the active and inactive calls. The calls are words filed in the database; no cut-off is given here.

T1 sequence (P35462 whole entry): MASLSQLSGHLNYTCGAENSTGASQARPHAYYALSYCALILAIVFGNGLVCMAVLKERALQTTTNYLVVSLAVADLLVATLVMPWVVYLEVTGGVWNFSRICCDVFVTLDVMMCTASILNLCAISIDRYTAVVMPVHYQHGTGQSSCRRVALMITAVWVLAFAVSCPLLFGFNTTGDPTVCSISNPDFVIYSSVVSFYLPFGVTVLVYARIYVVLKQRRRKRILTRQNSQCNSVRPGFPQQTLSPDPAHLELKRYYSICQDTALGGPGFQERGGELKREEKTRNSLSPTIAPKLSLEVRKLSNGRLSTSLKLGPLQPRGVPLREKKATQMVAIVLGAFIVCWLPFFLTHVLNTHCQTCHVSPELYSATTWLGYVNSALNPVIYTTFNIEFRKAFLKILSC
T2 sequence (P14416 whole entry): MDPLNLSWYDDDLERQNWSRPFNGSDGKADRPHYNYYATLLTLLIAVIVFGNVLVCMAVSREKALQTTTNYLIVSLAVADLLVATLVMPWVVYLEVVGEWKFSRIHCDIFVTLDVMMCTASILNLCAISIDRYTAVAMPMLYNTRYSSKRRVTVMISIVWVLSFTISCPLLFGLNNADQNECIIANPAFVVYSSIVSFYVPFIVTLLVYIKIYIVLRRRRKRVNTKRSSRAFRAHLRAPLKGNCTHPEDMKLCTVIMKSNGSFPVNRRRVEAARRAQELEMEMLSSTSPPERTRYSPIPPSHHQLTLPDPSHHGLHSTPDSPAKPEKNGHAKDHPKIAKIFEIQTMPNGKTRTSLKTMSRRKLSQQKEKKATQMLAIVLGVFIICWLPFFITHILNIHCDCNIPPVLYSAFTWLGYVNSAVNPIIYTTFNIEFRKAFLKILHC
Description for D(4) dopamine receptor: Binding affinity for human Dopamine receptor D4 by [3H]- spiperone displacement.

In the case of `COc1ccccc1N1CCN(CCCCNC(=O)c2cc3ccccn3n2)CC1`, the Effect on D(3) dopamine receptor [1] was determined as 52%.

Consider `O=C(NCCCCN1CCN(c2cccc(Cl)c2Cl)CC1)c1cc2ccccc2o1`, for which the Effect result at D(3) dopamine receptor [2] is “inactive”.

As a reminder, the Ki is a measure of affinity in units of concentration, obtained from inhibition or displacement. Lower therefore signals tighter binding. Regarding `O=C(NCCCCN1CCN(c2cccc(Cl)c2Cl)CC1)c1cc2ccccc2[te]1`, the Ki on D(2) dopamine receptor [3] was 48 nM; in assay [4], 730 nM; in assay [5], > 1000 nM; at D(4) dopamine receptor, 150 nM; at D(3) dopamine receptor [7] it was 0.55 nM; at D(2) dopamine receptor [8] it was 91 nM. Also, the NE result at D(3) dopamine receptor [6] was “inactive”.

Regarding `COc1ccccc1N1CCN(CCCCNC(=O)c2cc3ccccc3[te]2)CC1`, the NE result on D(3) dopamine receptor [6] was “inactive”.

On to `O=C(NCCCCN1CCN(c2cccc(Cl)c2Cl)CC1)c1cc2ccccc2s1`, for which the NE entry at D(3) dopamine receptor [6] was “inactive”.
